Experimental data from PubChem BioAssay (NCI).
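96-well plates; 48 h exposure; 5 concentrations. Endpoints by linear interpolation between flanking doses. Not reached: highest tested concentration assigned. Definition used: TGI = concentration required for complete inhibition of growth.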

Tests used:
Experiment in all cases: NCI tumour cell line growth inhibition, 48 h
786-0 renal = tested on: 786-0 renal
A498 renal = tested on: A498 renal
A549 NSCLC = tested on: A549 NSCLC
ACHN renal = tested on: ACHN renal
CAKI-1 renal = tested on: CAKI-1 renal
CCRF-CEM leukemia = tested on: CCRF-CEM leukemia
COLO 205 colon = tested on: COLO 205 colon
DLD-1 colon = tested on: DLD-1 colon
DMS 114 small cell lung = tested on: DMS 114 small cell lung
DMS 273 small cell lung = tested on: DMS 273 small cell lung
EKVX NSCLC = tested on: EKVX NSCLC
HCC-2998 colon = tested on: HCC-2998 colon
HCT-116 colon = tested on: HCT-116 colon
HOP-18 NSCLC = tested on: HOP-18 NSCLC
HOP-62 NSCLC = tested on: HOP-62 NSCLC
HOP-92 NSCLC = tested on: HOP-92 NSCLC
HT29 colon = tested on: HT29 colon
IGROV1 ovarian = tested on: IGROV1 ovarian
K-562 leukemia = tested on: K-562 leukemia
KM12 colon = tested on: KM12 colon
LOX IMVI melanoma = tested on: LOX IMVI melanoma
LXFL 529 NSCLC = tested on: LXFL 529 NSCLC
M14 melanoma = tested on: M14 melanoma
M19-MEL melanoma = tested on: M19-MEL melanoma
MALME-3M melanoma = tested on: MALME-3M melanoma
MOLT-4 leukemia = tested on: MOLT-4 leukemia
NCI-H226 lung = tested on: NCI-H226 lung
NCI-H23 lung = tested on: NCI-H23 lung
NCI-H460 lung = tested on: NCI-H460 lung
NCI-H522 lung = tested on: NCI-H522 lung
OVCAR-3 ovarian = tested on: OVCAR-3 ovarian
OVCAR-4 ovarian = tested on: OVCAR-4 ovarian
OVCAR-5 ovarian = tested on: OVCAR-5 ovarian
OVCAR-8 ovarian = tested on: OVCAR-8 ovarian
RPMI-8226 leukemia = tested on: RPMI-8226 leukemia
RXF-631 renal = tested on: RXF-631 renal
SF-268 CNS = tested on: SF-268 CNS
SF-295 CNS = tested on: SF-295 CNS
SF-539 CNS = tested on: SF-539 CNS
SK-MEL-2 melanoma = tested on: SK-MEL-2 melanoma
SK-MEL-28 melanoma = tested on: SK-MEL-28 melanoma
SK-MEL-5 melanoma = tested on: SK-MEL-5 melanoma
SK-OV-3 ovarian = tested on: SK-OV-3 ovarian
SN12C renal = tested on: SN12C renal
SNB-19 CNS = tested on: SNB-19 CNS
SNB-75 CNS = tested on: SNB-75 CNS
SNB-78 CNS = tested on: SNB-78 CNS
SR leukemia = tested on: SR leukemia
SW-620 colon = tested on: SW-620 colon
TK-10 renal = tested on: TK-10 renal
U251 CNS = tested on: U251 CNS
UACC-257 melanoma = tested on: UACC-257 melanoma
UACC-62 melanoma = tested on: UACC-62 melanoma
UO-31 renal = tested on: UO-31 renal
XF 498 CNS = tested on: XF 498 CNS
HCT-15 colon = tested on: HCT-15 colon
HL-60(TB) leukemia = tested on: HL-60(TB) leukemia
RXF 393 renal = tested on: RXF 393 renal

Cc1cc(C)nc(Sc2c([N+](=O)[O-])ncn2C)n1
TGI (786-0 renal): > 100 µM | TGI (A498 renal): > 100 µM | TGI (A549 NSCLC): > 100 µM | TGI (ACHN renal): > 100 µM | TGI (CAKI-1 renal): > 100 µM | TGI (CCRF-CEM leukemia): > 100 µM | TGI (COLO 205 colon): > 100 µM | TGI (DLD-1 colon): > 100 µM | TGI (DMS 114 small cell lung): > 100 µM | TGI (DMS 273 small cell lung): > 100 µM | TGI (EKVX NSCLC): > 100 µM | TGI (HCC-2998 colon): > 100 µM | TGI (HCT-116 colon): > 100 µM | TGI (HOP-18 NSCLC): 85.4 µM | TGI (HOP-62 NSCLC): > 100 µM | TGI (HOP-92 NSCLC): > 100 µM | TGI (HT29 colon): > 100 µM | TGI (IGROV1 ovarian): > 100 µM | TGI (K-562 leukemia): > 100 µM | TGI (KM12 colon): > 100 µM | TGI (LOX IMVI melanoma): > 100 µM | TGI (LXFL 529 NSCLC): > 100 µM | TGI (M14 melanoma): > 100 µM | TGI (M19-MEL melanoma): > 100 µM | TGI (MALME-3M melanoma): > 100 µM | TGI (MOLT-4 leukemia): > 100 µM | TGI (NCI-H226 lung): > 100 µM | TGI (NCI-H23 lung): > 100 µM | TGI (NCI-H460 lung): > 100 µM | TGI (NCI-H522 lung): > 100 µM | TGI (OVCAR-3 ovarian): > 100 µM | TGI (OVCAR-4 ovarian): > 100 µM | TGI (OVCAR-5 ovarian): > 100 µM | TGI (OVCAR-8 ovarian): > 100 µM | TGI (RPMI-8226 leukemia): > 100 µM | TGI (RXF-631 renal): > 100 µM | TGI (SF-268 CNS): > 100 µM | TGI (SF-295 CNS): > 100 µM | TGI (SF-539 CNS): > 100 µM | TGI (SK-MEL-2 melanoma): > 100 µM | TGI (SK-MEL-28 melanoma): > 100 µM | TGI (SK-MEL-5 melanoma): > 100 µM | TGI (SK-OV-3 ovarian): > 100 µM | TGI (SN12C renal): > 100 µM | TGI (SNB-19 CNS): > 100 µM | TGI (SNB-75 CNS): > 100 µM | TGI (SNB-78 CNS): > 100 µM | TGI (SR leukemia): > 100 µM | TGI (SW-620 colon): > 100 µM | TGI (TK-10 renal): > 100 µM | TGI (U251 CNS): > 100 µM | TGI (UACC-257 melanoma): > 100 µM | TGI (UACC-62 melanoma): > 100 µM | TGI (UO-31 renal): > 100 µM | TGI (XF 498 CNS): > 100 µM

O=C(Nc1ccc2[nH]c3c(-c4ccccc4)nccc3c2c1)c1ccccc1[N+](=O)[O-]
TGI (A498 renal): 9.47 µM | TGI (A549 NSCLC): > 100 µM | TGI (ACHN renal): > 100 µM | TGI (CAKI-1 renal): > 100 µM | TGI (CCRF-CEM leukemia): > 100 µM | TGI (COLO 205 colon): 23.5 µM | TGI (DMS 114 small cell lung): > 100 µM | TGI (DMS 273 small cell lung): 3.76 µM | TGI (EKVX NSCLC): > 100 µM | TGI (HCC-2998 colon): 11.4 µM | TGI (HCT-116 colon): > 100 µM | TGI (HCT-15 colon): 5.32 µM | TGI (HL-60(TB) leukemia): 10.6 µM | TGI (HOP-18 NSCLC): > 100 µM | TGI (HOP-92 NSCLC): 8.97 µM | TGI (HT29 colon): 4.3 µM | TGI (IGROV1 ovarian): > 100 µM | TGI (K-562 leukemia): > 100 µM | TGI (KM12 colon): > 100 µM | TGI (LXFL 529 NSCLC): 47.2 µM | TGI (M14 melanoma): 5.88 µM | TGI (MALME-3M melanoma): 3.64 µM | TGI (MOLT-4 leukemia): 15.3 µM | TGI (NCI-H226 lung): 6.2 µM | TGI (NCI-H23 lung): 33.5 µM | TGI (NCI-H460 lung): > 100 µM | TGI (OVCAR-4 ovarian): > 100 µM | TGI (OVCAR-5 ovarian): 4.63 µM | TGI (OVCAR-8 ovarian): > 100 µM | TGI (RPMI-8226 leukemia): > 100 µM | TGI (RXF 393 renal): 3.69 µM | TGI (RXF-631 renal): > 100 µM | TGI (SF-268 CNS): > 100 µM | TGI (SF-295 CNS): 3.7 µM | TGI (SF-539 CNS): 3.46 µM | TGI (SK-MEL-2 melanoma): 21.4 µM | TGI (SK-MEL-28 melanoma): > 100 µM | TGI (SN12C renal): > 100 µM | TGI (SNB-19 CNS): > 100 µM | TGI (SNB-75 CNS): 9.14 µM | TGI (SNB-78 CNS): > 100 µM | TGI (SR leukemia): 6.97 µM | TGI (SW-620 colon): 37.3 µM | TGI (TK-10 renal): 27.6 µM | TGI (U251 CNS): 16.7 µM | TGI (UACC-257 melanoma): 30.7 µM | TGI (XF 498 CNS): 18.9 µM

COc1ccc2c(c1)CCc1c(C(C)=O)c3ccccc3n1C2
TGI (786-0 renal): > 100 µM | TGI (A549 NSCLC): > 100 µM | TGI (ACHN renal): > 100 µM | TGI (CAKI-1 renal): > 100 µM | TGI (CCRF-CEM leukemia): > 100 µM | TGI (COLO 205 colon): > 100 µM | TGI (DLD-1 colon): > 100 µM | TGI (DMS 114 small cell lung): > 100 µM | TGI (DMS 273 small cell lung): > 100 µM | TGI (HCC-2998 colon): > 100 µM | TGI (HCT-116 colon): > 100 µM | TGI (HL-60(TB) leukemia): > 100 µM | TGI (HOP-18 NSCLC): > 100 µM | TGI (HOP-62 NSCLC): 91.3 µM | TGI (HOP-92 NSCLC): > 100 µM | TGI (HT29 colon): > 100 µM | TGI (IGROV1 ovarian): > 100 µM | TGI (K-562 leukemia): > 100 µM | TGI (KM12 colon): > 100 µM | TGI (LOX IMVI melanoma): > 100 µM | TGI (LXFL 529 NSCLC): > 100 µM | TGI (M14 melanoma): > 100 µM | TGI (M19-MEL melanoma): > 100 µM | TGI (MALME-3M melanoma): 74.4 µM | TGI (MOLT-4 leukemia): > 100 µM | TGI (NCI-H23 lung): > 100 µM | TGI (NCI-H460 lung): > 100 µM | TGI (NCI-H522 lung): > 100 µM | TGI (OVCAR-3 ovarian): > 100 µM | TGI (OVCAR-4 ovarian): > 100 µM | TGI (OVCAR-5 ovarian): > 100 µM | TGI (OVCAR-8 ovarian): > 100 µM | TGI (RXF 393 renal): 75.4 µM | TGI (RXF-631 renal): > 100 µM | TGI (SF-268 CNS): > 100 µM | TGI (SF-295 CNS): > 100 µM | TGI (SF-539 CNS): 62.6 µM | TGI (SK-MEL-28 melanoma): > 100 µM | TGI (SK-MEL-5 melanoma): > 100 µM | TGI (SN12C renal): > 100 µM | TGI (SNB-19 CNS): > 100 µM | TGI (SNB-75 CNS): 85.1 µM | TGI (SNB-78 CNS): > 100 µM | TGI (SR leukemia): > 100 µM | TGI (SW-620 colon): > 100 µM | TGI (TK-10 renal): > 100 µM | TGI (U251 CNS): > 100 µM | TGI (UACC-257 melanoma): > 100 µM | TGI (UACC-62 melanoma): > 100 µM | TGI (UO-31 renal): > 100 µM | TGI (XF 498 CNS): 51.2 µM
